Reference: patent publication US20100204135A1, “USE OF LVV-HEMORPHIN-6 AND OPTIONALLY AF12198 AS THERAPEUTIC AGENT(S)” (priority 2007, published 2010)
Where no end group is shown, it is not given here.

System: drug-resistant Mycobacterium tuberculosis
Test: Mycobacterium tuberculosis assay
Format: cell-based

Substance	inhibition of the growth of Mycobacterium tuberculosis [%]
Leu-Val-Val-Tyr-Pro-Trp-Thr-Gln-Arg-OH (LVVYPWTQR-OH) [Peptide 1]	100
Phe-Glu-Trp-Thr-Pro-Gly-Tyr-Trp-Gln-Pro-Tyr-Ala-Leu-Pro-Leu-OH (FEWTPGYWQPYALPL-OH) [Peptide 2]	100
